Source: ChEMBL document CHEMBL3351476, “The discovery of I-BET726 (GSK1324726A), a potent tetrahydroquinoline ApoA1 up-regulator and selective BET bromodomain inhibitor” (J Med Chem, 2014)
pIC50, pKd: −log10 of the molar value. In brackets after ≈: the same amount, converted by molar mass.

How the values were obtained:
[1] = Clearance in dog hepatocytes assessed per gram of tissue at 1 uM by LC-MS/MS analysis; format: ADME, cell-based, Canis lupus familiaris, Hepatocyte
[2] = Blood clearance in beagle dog at 1 mg/kg, iv as infusion and 3 mg/kg, po; format: ADME, organism-based, Canis lupus familiaris; settings: whole blood
[3] = Fraction unbound in rat blood by rapid equilibrium dialysis method; format: ADME, tissue-based
[4] = Terminal half life in Cynomolgus monkey at 1 mg/kg, iv as infusion; format: ADME, organism-based, Macaca fascicularis; design: dose 1 mg/kg, route intravenous; settings: in vivo, read-out: beta t1/2 (converted)
[5] = target: Cytochrome P450 3A4 (Homo sapiens, UniProt P08684); assay: Time-dependent inhibition of human recombinant CYP3A4 expressed in Escherichia coli bactosomes using diethoxyfluorescein as substrate by fluorescence assay; format: ADME; settings: recombinant enzyme
Chain of Cytochrome P450 3A4 (P08684 whole entry): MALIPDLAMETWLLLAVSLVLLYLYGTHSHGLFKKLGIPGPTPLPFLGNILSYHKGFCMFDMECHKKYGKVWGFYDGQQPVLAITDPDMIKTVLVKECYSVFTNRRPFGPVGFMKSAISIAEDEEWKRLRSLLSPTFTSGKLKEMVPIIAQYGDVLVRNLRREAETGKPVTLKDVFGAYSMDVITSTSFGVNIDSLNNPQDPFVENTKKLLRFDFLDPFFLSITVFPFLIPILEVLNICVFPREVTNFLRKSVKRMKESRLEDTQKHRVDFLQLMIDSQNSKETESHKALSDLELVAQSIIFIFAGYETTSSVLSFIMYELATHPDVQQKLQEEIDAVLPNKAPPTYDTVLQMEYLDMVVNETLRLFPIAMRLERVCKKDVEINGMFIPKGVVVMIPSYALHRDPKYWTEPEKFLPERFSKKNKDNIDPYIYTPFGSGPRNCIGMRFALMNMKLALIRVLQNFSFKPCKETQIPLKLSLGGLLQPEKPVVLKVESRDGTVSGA

[6] = target: T1, Bromodomain testis-specific protein (Homo sapiens, UniProt Q58F21); assay: Inhibition of human BRDT bromodomain 1 by BROMOscan assay
[7] = Oral bioavailability in Balb/c mouse at 3 mg/kg; format: ADME, organism-based; settings: in vivo
[8] = target: T2, Bromodomain-containing protein 2 (Homo sapiens, UniProt P25440); assay: Displacement of biotinylated tetra-acetylated histone H4 from His6-tagged BRD2 (1 to 473 aa) (unknown origin) after 1 hr by TR-FRET assay
T2 sequence (P25440 whole entry, the tested form may be a part): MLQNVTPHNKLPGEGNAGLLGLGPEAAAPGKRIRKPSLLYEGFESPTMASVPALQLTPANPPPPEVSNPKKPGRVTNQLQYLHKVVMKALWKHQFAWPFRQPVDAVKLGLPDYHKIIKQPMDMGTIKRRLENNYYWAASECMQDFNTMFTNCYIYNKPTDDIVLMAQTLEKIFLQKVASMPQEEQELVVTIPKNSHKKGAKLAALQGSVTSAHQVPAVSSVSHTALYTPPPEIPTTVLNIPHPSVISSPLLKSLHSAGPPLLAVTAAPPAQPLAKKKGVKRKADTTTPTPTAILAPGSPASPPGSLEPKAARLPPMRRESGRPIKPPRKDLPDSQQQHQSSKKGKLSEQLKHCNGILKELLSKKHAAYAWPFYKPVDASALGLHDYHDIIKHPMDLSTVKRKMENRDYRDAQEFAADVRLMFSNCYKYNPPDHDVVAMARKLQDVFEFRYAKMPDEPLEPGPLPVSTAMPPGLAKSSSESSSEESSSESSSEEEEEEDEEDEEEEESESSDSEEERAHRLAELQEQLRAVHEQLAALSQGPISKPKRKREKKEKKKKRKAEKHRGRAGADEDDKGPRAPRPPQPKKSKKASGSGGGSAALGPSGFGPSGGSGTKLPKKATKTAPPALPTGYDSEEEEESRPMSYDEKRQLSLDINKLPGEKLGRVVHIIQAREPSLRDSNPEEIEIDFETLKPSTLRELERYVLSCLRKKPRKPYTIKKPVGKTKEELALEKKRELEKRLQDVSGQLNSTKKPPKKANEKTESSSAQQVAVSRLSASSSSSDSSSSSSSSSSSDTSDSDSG

[9] = target: Histone acetyltransferase KAT2A (Homo sapiens, UniProt Q92830); assay: Inhibition of human GCN5 by BROMOscan assay
[10] = AUC (0 to t) in Balb/c mouse at 3 mg/kg, po; format: ADME, organism-based; design: dose 3 mg/kg, route oral; settings: plasma
[11] = target: ATPase family AAA domain-containing protein 2 (Homo sapiens, UniProt Q6PL18); assay: Inhibition of human ATAD2 by BROMOscan assay
[12] = target: T3, Bromodomain-containing protein 3 (Homo sapiens, UniProt Q15059); assay: Displacement of biotinylated tetra-acetylated histone H4 from His6-tagged BRD3 (1 to 475 aa) (unknown origin) after 1 hr by TR-FRET assay
T3 sequence (Q15059 whole entry, the tested form may be a part): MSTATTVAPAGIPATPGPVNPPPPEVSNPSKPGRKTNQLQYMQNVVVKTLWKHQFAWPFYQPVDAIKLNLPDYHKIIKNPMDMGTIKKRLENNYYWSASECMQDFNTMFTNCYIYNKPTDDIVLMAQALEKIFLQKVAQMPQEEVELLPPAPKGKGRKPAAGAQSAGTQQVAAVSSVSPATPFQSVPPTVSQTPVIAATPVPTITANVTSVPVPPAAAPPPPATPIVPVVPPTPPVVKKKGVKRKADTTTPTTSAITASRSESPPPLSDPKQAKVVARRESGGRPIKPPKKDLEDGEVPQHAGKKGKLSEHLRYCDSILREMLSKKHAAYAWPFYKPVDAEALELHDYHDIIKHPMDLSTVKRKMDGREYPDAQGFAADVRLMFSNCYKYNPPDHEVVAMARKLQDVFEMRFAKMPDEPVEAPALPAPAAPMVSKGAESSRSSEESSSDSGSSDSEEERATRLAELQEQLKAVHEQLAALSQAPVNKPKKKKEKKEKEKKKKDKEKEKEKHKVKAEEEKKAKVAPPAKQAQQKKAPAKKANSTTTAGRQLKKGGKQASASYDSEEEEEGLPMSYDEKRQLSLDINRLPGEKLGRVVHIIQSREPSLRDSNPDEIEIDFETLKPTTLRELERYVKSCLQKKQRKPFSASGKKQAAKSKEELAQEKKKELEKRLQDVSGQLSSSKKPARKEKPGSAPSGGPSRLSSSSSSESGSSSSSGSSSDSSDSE

[13] = target: Histone acetyltransferase KAT2B (Homo sapiens, UniProt Q92831); assay: Inhibition of human PCAF by BROMOscan assay
[14] = target: ATPase family AAA domain-containing protein 2B (Homo sapiens, UniProt Q9ULI0); assay: Inhibition of human ATAD2B by BROMOscan assay
[15] = Permeability of the compound by PAMPA; format: ADME; settings: read-out: permeability
[16] = test system: Hepatocyte; assay: Clearance in human hepatocytes assessed per gram of tissue at 1 uM by LC-MS/MS analysis; format: ADME, cell-based
[17] = target: Bromodomain-containing protein 9 (Homo sapiens, UniProt Q9H8M2); assay: Inhibition of human BRD9 by BROMOscan assay
[18] = AUC (0 to t) in beagle dog at 3 mg/kg, po; format: ADME, organism-based, Canis lupus familiaris; design: dose 3 mg/kg, route oral; settings: plasma
[19] = target: Cytochrome P450 2C9 (Homo sapiens, UniProt P11712); assay: Inhibition of CYP2C9 (unknown origin) expressed in Escherichia coli bactosomes using 7-methoxy-4-trifluoromethylcoumarin-3-acetic acid as substrate after 10 mins by fluorescence assay; format: ADME
[20] = test system: Blood; assay: Inhibition of LPS-induced IL6 production in human whole blood after 24 hrs by immunoassay; format: functional, tissue-based
[21] = target: T1, Bromodomain testis-specific protein; assay: Inhibition of human BRDT bromodomain 2 by BROMOscan assay
[22] = target: T4, Protein polybromo-1 (Homo sapiens, UniProt Q86U86); assay: Inhibition of human PBRM1 bromodomain 5 by BROMOscan assay
T4 sequence (Q86U86 whole entry): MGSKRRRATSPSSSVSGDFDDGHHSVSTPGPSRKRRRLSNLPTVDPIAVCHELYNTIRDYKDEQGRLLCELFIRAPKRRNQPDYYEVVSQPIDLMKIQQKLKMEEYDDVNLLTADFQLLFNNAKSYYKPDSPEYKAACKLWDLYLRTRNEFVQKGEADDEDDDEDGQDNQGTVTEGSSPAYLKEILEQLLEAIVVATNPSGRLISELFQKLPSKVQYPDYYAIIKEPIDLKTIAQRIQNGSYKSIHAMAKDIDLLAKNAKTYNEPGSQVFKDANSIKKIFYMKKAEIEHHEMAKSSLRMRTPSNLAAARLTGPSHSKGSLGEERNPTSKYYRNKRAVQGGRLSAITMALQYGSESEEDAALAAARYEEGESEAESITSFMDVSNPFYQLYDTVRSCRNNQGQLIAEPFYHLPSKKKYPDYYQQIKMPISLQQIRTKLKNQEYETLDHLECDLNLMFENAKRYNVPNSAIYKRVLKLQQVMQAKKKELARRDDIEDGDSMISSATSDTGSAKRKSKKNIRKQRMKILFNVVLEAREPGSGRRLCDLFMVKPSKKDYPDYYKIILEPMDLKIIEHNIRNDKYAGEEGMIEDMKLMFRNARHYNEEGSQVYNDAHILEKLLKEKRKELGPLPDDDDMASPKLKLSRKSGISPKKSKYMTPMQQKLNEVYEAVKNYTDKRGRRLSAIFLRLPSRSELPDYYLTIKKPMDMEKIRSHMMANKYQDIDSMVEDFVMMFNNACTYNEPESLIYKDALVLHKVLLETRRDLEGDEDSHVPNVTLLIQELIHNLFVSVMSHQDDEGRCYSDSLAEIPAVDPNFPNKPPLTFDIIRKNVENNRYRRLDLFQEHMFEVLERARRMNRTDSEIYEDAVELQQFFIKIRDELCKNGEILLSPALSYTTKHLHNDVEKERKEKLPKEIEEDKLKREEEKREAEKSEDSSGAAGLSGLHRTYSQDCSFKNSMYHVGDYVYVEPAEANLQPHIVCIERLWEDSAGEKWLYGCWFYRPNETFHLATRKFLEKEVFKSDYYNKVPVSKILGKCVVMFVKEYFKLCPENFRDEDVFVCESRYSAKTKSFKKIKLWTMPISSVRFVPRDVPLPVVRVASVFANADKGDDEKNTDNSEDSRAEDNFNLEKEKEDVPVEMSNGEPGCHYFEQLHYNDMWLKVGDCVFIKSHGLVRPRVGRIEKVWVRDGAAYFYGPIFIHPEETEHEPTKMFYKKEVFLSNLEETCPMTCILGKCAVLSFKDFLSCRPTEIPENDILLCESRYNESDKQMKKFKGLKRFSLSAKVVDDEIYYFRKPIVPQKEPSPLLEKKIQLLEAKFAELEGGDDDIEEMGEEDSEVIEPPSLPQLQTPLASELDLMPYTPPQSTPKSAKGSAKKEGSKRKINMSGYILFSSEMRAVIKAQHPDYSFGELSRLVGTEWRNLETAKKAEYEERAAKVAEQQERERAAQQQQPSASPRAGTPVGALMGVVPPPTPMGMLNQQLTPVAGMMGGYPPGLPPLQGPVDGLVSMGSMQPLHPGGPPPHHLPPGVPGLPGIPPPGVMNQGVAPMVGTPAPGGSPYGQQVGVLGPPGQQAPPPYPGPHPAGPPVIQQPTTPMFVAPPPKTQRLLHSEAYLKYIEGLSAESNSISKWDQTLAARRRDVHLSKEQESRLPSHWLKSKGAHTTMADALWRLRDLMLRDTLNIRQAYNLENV

[23] = target: T2, Bromodomain-containing protein 2; assay: Inhibition of human BRD2 bromodomain 1 by BROMOscan assay
[24] = Solubility of the compound in fasted state simulated intestinal fluid at 125 ug/ml after 16 hrs by HPLC analysis; format: ADME; settings: fasted state simulated intestinal fluid
[25] = target: Transcription intermediary factor 1-alpha (Homo sapiens, UniProt O15164); assay: Inhibition of human TIF1alpha PHD/bromodomain by BROMOscan assay
[26] = Oral bioavailability in Cynomolgus monkey at 2 mg/kg; format: ADME, organism-based, Macaca fascicularis; settings: in vivo
[27] = target: E3 ubiquitin-protein ligase TRIM33 (Homo sapiens, UniProt Q9UPN9); assay: Inhibition of human TIF1gamma PHD/bromodomain by BROMOscan assay
[28] = Terminal half life in beagle dog at 1 mg/kg, iv as infusion; format: ADME, organism-based, Canis lupus familiaris; design: dose 1 mg/kg, route intravenous; settings: in vivo, read-out: beta t1/2 (converted)
[29] = target: Cytochrome P450 2C19 (Homo sapiens, UniProt P33261); assay: Inhibition of CYP2C19 (unknown origin) expressed in Escherichia coli bactosomes using 3-butyryl-7-methoxycoumarin as substrate after 10 mins by fluorescence assay; format: ADME
[30] = Fraction unbound in dog blood by rapid equilibrium dialysis method; format: ADME, tissue-based, Canis lupus familiaris
[31] = target: T1, Bromodomain testis-specific protein; assay: Inhibition of BRDT (unknown origin) by TR-FRET assay
[32] = target: Peregrin (Homo sapiens, UniProt P55201); assay: Inhibition of human BRPF1 by BROMOscan assay
[33] = target: T3, Bromodomain-containing protein 3; assay: Binding affinity to His6-tagged BRD3 (1 to 475 aa) (unknown origin) by SPR method
[34] = AUC (0 to t) in rat at 3 mg/kg, po; format: ADME, organism-based; design: dose 3 mg/kg, route oral; settings: plasma
[35] = target: CREB-binding protein (Homo sapiens, UniProt Q92793); assay: Binding affinity to CREBBP (unknown origin) by ITC method
[36] = target: Cytochrome P450 1A2 (Homo sapiens, UniProt P05177); assay: Inhibition of CYP1A2 (unknown origin) expressed in Escherichia coli bactosomes using ethoxyresorufin as substrate after 10 mins by fluorescence assay; format: ADME
[37] = Oral bioavailability in beagle dog at 3 mg/kg; format: ADME, organism-based, Canis lupus familiaris; settings: in vivo
[38] = Oral bioavailability in rat at 3 mg/kg; format: ADME, organism-based; settings: in vivo
[39] = target: T3, Bromodomain-containing protein 3; assay: Inhibition of human BRD3 bromodomain 1 by BROMOscan assay
[40] = target: T4, Protein polybromo-1; assay: Inhibition of human PBRM1 bromodomain 1 by BROMOscan assay
[41] = target: Chromatin remodeling regulator CECR2 (Homo sapiens, UniProt Q9BXF3); assay: Inhibition of human CECR2 by BROMOscan assay
[42] = target: Bromodomain adjacent to zinc finger domain protein 2B (Homo sapiens, UniProt Q9UIF8); assay: Inhibition of BAZ2B (unknown origin) by BROMOscan assay
[43] = Blood clearance in Cynomolgus monkey at 1 mg/kg, iv as infusion and 3 mg/kg, po; format: ADME, organism-based, Macaca fascicularis; settings: whole blood
[44] = target: T2, Bromodomain-containing protein 2; assay: Binding affinity to His6-tagged BRD2 (1 to 473 aa) (unknown origin) by SPR method
[45] = Volume of distribution at steady state in rat at 1 mg/kg, iv as infusion and 3 mg/kg, po; format: ADME, organism-based; settings: in vivo, read-out: Vdss
[46] = target: Bromodomain and PHD finger-containing protein 3 (Homo sapiens, UniProt Q9ULD4); assay: Inhibition of human BRPF3 by BROMOscan assay
Chain of Bromodomain and PHD finger-containing protein 3 (Q9ULD4 whole entry): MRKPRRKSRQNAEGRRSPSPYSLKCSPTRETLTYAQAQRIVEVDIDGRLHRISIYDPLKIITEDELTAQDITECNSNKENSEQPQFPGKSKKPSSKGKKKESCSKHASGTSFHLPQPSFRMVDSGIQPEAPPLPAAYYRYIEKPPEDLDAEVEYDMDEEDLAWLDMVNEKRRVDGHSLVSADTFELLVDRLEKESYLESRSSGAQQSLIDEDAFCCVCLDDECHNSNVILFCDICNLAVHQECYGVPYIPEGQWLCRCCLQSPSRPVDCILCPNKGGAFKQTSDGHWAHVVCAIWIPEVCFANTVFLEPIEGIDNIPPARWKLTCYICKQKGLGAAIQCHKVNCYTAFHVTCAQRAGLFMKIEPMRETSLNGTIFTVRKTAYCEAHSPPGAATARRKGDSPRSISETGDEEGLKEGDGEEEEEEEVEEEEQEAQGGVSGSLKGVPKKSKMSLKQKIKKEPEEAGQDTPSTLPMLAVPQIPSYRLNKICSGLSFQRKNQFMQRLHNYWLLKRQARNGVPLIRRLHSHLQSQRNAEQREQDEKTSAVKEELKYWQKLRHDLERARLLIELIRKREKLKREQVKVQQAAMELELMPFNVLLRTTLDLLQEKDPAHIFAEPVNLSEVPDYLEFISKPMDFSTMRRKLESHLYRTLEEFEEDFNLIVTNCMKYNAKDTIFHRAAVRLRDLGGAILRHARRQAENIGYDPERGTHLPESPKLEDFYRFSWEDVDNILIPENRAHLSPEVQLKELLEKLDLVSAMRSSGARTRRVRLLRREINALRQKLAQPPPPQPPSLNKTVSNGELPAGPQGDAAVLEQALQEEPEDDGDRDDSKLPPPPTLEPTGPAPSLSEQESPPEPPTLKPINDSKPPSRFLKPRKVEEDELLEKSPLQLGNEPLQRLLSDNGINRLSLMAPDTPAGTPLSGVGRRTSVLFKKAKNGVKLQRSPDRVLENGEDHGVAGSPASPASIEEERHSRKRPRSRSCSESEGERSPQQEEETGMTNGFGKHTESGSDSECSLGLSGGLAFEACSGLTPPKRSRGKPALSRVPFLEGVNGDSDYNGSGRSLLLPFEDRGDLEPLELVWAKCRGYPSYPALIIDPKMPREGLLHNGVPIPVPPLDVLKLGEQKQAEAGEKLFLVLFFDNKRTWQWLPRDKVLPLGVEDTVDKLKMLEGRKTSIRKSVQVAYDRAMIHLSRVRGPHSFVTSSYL

[47] = Clearance in Cynomolgus monkey hepatocytes assessed per gram of tissue at 1 uM by LC-MS/MS analysis; format: ADME, cell-based, Macaca fascicularis, Hepatocyte
[48] = target: Transcription initiation factor TFIID subunit 1 (Homo sapiens, UniProt P21675); assay: Inhibition of human TAF1 by BROMOscan assay
[49] = Fraction unbound in human blood by rapid equilibrium dialysis method; format: ADME, tissue-based
[50] = Volume of distribution at steady state in Balb/c mouse at 10 mg/kg, iv as bolus dose; format: ADME, organism-based; design: dose 10 mg/kg, route intravenous; settings: in vivo, read-out: Vdss

CC(=O)N1c2ccc(-c3ccc(C(=O)O)cc3)cc2[C@H](Nc2ccc(Cl)cc2)C[C@@H]1C
CLH [1]: < 1.7 mL/min/g
clearance [2]: 6 mL/min/kg
fraction unbound [3]: 0.009
half-life [4]: 2.7 h
inhibition (INH) [5]: Active
pIC50 [6]: 4.50
bioavailability [7]: 45%
pIC50 [8]: 6.80
pIC50 [9]: < 6.50
AUC(0-t) [10]: 6030 ng·h/mL
pIC50 [11]: < 4.50
pIC50 [12]: 6.70
pIC50 [13]: < 5.10
pIC50 [14]: < 4.50
Papp [15]: 9.5 ×10⁻⁶ cm/s
CLH [16]: < 0.85 mL/min/g
pIC50 [17]: < 4.50
AUC(0-t) [18]: 5900 ng·h/mL
pIC50 [19]: 4.89
pIC50 [20]: 6.40
pIC50 [21]: 4.50
pIC50 [22]: < 4.50
pIC50 [23]: < 4.50
solubility at 16 h [24]: 106 µg/mL (≈ 244 µM)
pIC50 [25]: 4.80
bioavailability [26]: 103%
pIC50 [27]: < 5.00
half-life [28]: 1.8 h
pIC50 [29]: 4.92
fraction unbound [30]: 0.065
pIC50 [31]: 7.30
pIC50 [32]: < 8.40
pKd [33]: 7.70
AUC(0-t) [34]: 539 ng·h/mL
pKd [35]: 5.20
pIC50 [36]: < 4.48
bioavailability [37]: 80%
bioavailability [38]: 28%
pIC50 [39]: 9.20
pIC50 [40]: 6.20
pIC50 [41]: < 4.50
pIC50 [42]: < 4.50
clearance [43]: 3 mL/min/kg
pKd [44]: 7.60
Vd [45]: 2 L/kg
pIC50 [46]: < 9.00
CLH [47]: < 0.85 mL/min/g
pIC50 [48]: 4.50
fraction unbound [49]: 0.017
Vd [50]: 0.48 L/kg
